Measured values taken from patent publication US8187884B2, “Method of enhancing homologous recombination of somatic cells and method of constructing specific antibody” (Riken, priority 2002, dated 2012).

Experiments:
Format in all cases: cell-based, chicken
[1] = test system: VJ region of antibody light chain gene in DT40 cell line (3H12); experiment: MNase sensitivity (indirect end labeling, Southern blot) of antibody light chain gene chromatin after TSA treatment; conditions: 3H12 cells incubated 8 hours with TSA 0.625, 1.25, 2.5 ng/ml; MNase 0.04-1 U
Procedure: Whether an alteration of the chromatin structure of the antibody light chain gene has actually been produced by TSA was analyzed using indirect end labeling with micrococcal nuclease (MNase) sensitivity as an indicator. Among chicken antibody alleles, one is VJ rearranged and the other one is not rearranged, but it is known that actually functional in antibody production is VJ rearranged one. However, since both sequences are almost identical, it is difficult to analyze VJ rearranged allele of wild type DT40 cells by simple application of indirect end labeling method. In order to solve this problem, on the side for which VJ recombination has not occurred, a mutant of which sequences in the vicinity of the region to be used as a Southern hybridization probe is deleted is generated, and an analysis of MNase sensitivity using this mutant was performed. […]
The nuclear pellet was resuspended in 10 ml RSB (10 mM Tris-HCl (pH7.5), 10 mM NaCl, 1.5 mM MgCl2, 0.5 mM DTI. 1 mM PMSF). […] The DNA concentration of this nuclear suspension was measured by Hoechst 33258 binding, and suspension corresponding to 100 μg was made into […] with RSB. […]

DT40 cells = experiment: Sequence analysis of antibody light chain gene variable region (somatic homologous recombination)
Procedure: DT40 cells were incubated at 39.5 degrees C. in a CO2 constant temperature oven in 5% CO2. IMDM medium (Invitrogen) was utilized as the medium, with 10% FBS, 1% chicken serum, 100 units/ml penicillin, 100 μg/ml streptomycin, and 55 μM 2-mercaptoethanol added. Additionally, for trichostatin A (Wako Pure Chemical Industries), this was dissolved to 5 mg/ml in methanol for stock, and this was used by diluting in an appropriate medium until the final concentration was 1.25 ng/ml.
(§1) At this time, a medium with 1.25 ng/ml trichostatin A added, and a medium with this not added, were prepared. This was incubated until single colonies appeared, and 5 clones (For No TSA, 6 clones) were transferred to a 6 well plate with 2 ml of fresh medium inside. At this time, incubation was continued by maintaining the original TSA concentration, and maintaining the cell concentration at 10^5-10^6 cells/ml.
With the abovementioned method, live cells of DT40 that were incubated for 3 weeks were recovered by fluorescence-activated cell sorter. With an EPICS ELITE ESP, 100 000 live cells were collected in a 1.5 ml tube. […]
PCR (Perkin Elmer 9600) was utilized for the amplification of the antibody light chain gene variable region. […] Plasmids were extracted, and the sequence was analyzed by an ABI PRI SM 377 DNA Sequencer (Perkin Elmer).

IgM(-) DT40 cells = experiment: IgM expression by FACS (appearance frequency of IgM(+) cells); conditions: 1.25 ng/ml trichostatin A, measured every other week by FACS
Procedure: as §1
Culture fluid containing approximately 10^6 IgM(−) cells on which trichostatin A treatment was done by the method described in Embodiment 2 was put in 1.5 ml tubes, said cells were recovered by centrifuging (1000 g, 5 minutes), and suspended in 200 μl of staining buffer (PBS, 0.3% BSA). The cells were recovered by centrifuging again, then suspended in 200 μl of FITC-labeled anti chicken IgM antibody (BETHYL) diluted to 1/250 fold with a staining buffer, and reacted for 1 hour on ice. The cells were recovered by centrifuging, then the cells were washed by suspending them again in 200 μl of staining buffer, and centrifuging this. After repeating this washing step one more time, the cells were suspended in 100 μl of staining buffer containing 5 μg/ml of propidium iodide (Nakarai). The fraction of cells expressing IgM was calculated by measuring 10 000 cells with an EPICS ELITE ESP (Beckman Coulter). At this time, cells stained by propidium iodide were gated out as dead cells.

Compound: CC(/C=C/C(=O)NO)=C\[C@@H](C)C(=O)c1ccc(N(C)C)cc1 [trichostatin A]
- accessibility of MNase to the VJ regions [1]: increased
- chromatin structure of the VJ regions [1]: relaxed
- diversity of antibody light chain genes (DT40 cells; DT40 cells cultured 3 weeks with 1.25 ng/ml trichostatin A vs absence): rose markedly
- number of sequence types of antibody light chain gene variable region among 42 samples (DT40 cells; DT40 cells cultured 3 weeks with 1.25 ng/ml trichostatin A, 42 samples): 16 types
- fraction of cells expressing IgM (IgM(+) cells) (IgM(-) DT40 cells): increased time dependently
